Source: the supplement of paper PMC10307832

Key:
Assay in all cases: relative viability (nuclei count vs DMSO), 5 days (fraction); higher = more cells survive
[1] = compound: CN(c1ncccc1CNc1nc(Nc2ccc3c(c2)CC(=O)N3)ncc1C(F)(F)F)S(C)(=O)=O + CC(C)C[C@H](NC(=O)[C@H](Cc1ccccc1)NC(=O)c1cnccn1)B(O)O [Bortezomib] (partner 0.002 µM)
Outline: (§1)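 Lung cancer cell lines were pin-tool dosed in 1536-well plates on the day after seeding, with either a lone drug or a fixed anchor-drug dose plus five library-drug doses (not always all listed) in √10 steps. Nuclei were counted on 4× images after 5 days. Relative viability is the ratio of treated-well to vehicle-well nuclei counts, with each value a median of duplicate plates.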

[2] = compound: CN(c1ncccc1CNc1nc(Nc2ccc3c(c2)CC(=O)N3)ncc1C(F)(F)F)S(C)(=O)=O + CS(=O)(=O)N1CCN(Cc2cc3nc(-c4cccc5[nH]ncc45)nc(N4CCOCC4)c3s2)CC1 [Pictilisib] (partner 1 µM)
Outline: as §1

[3] = compound: CN(c1ncccc1CNc1nc(Nc2ccc3c(c2)CC(=O)N3)ncc1C(F)(F)F)S(C)(=O)=O + O=C(c1cc(Cc2n[nH]c(=O)c3ccccc23)ccc1F)N1CCN(C(=O)C2CC2)CC1 [Olaparib] (partner 8 µM)
Outline: as §1

[4] = compound: CN(c1ncccc1CNc1nc(Nc2ccc3c(c2)CC(=O)N3)ncc1C(F)(F)F)S(C)(=O)=O + CC(=O)Nc1cccc(-n2c(=O)n(C3CC3)c(=O)c3c(Nc4ccc(I)cc4F)n(C)c(=O)c(C)c32)c1 [Trametinib] (partner 0.02 µM)
Outline: as §1

Cell Line | relative viability ([1]; first compound 0.01 µM) | relative viability ([1]; first compound 0.03162 µM) | relative viability ([1]; first compound 0.1 µM) | relative viability ([1]; first compound 0.3162 µM) | relative viability ([1]; first compound 1 µM) | relative viability ([2]; first compound 0.01 µM) | relative viability ([2]; first compound 0.03162 µM) | relative viability ([2]; first compound 0.1 µM) | relative viability ([2]; first compound 0.3162 µM) | relative viability ([2]; first compound 1 µM) | relative viability ([3]; first compound 0.01 µM) | relative viability ([3]; first compound 0.03162 µM) | relative viability ([3]; first compound 0.1 µM) | relative viability ([3]; first compound 0.3162 µM) | relative viability ([3]; first compound 1 µM) | relative viability ([4]; first compound 0.01 µM) | relative viability ([4]; first compound 0.03162 µM) | relative viability ([4]; first compound 0.1 µM) | relative viability ([4]; first compound 0.3162 µM) | relative viability ([4]; first compound 1 µM)
HCC-44 | 0.963 | 0.931 | 0.913 | 0.829 | 0.824 | 0.478 | 0.623 | 0.617 | 0.678 | 0.658 | 0.959 | 0.978 | 0.917 | 0.875 | 0.904 | 1.02 | 1.05 | 0.959 | 1.09 | 1.12
HCC-78 | 0.567 | 0.587 | 0.502 | 0.462 | 0.422 | 0.228 | 0.167 | 0.216 | 0.188 | 0.165 | 0.856 | 0.999 | 0.783 | 0.797 | 0.714 | 0.681 | 0.864 | 0.753 | 0.641 | 0.507
HCC-366 | 0.927 | 1.24 | 1.09 | 1.02 | 1.06 | 0.108 | 0.155 | 0.0871 | 0.197 | 0.19 | 0.351 | 0.376 | 0.347 | 0.292 | 0.352 | 0.41 | 0.398 | 0.296 | 0.303 | 0.308
HCC-827 | 1.1 | 1.06 | 1.09 | 1.02 | 1.05 | 0.878 | 1.08 | 1.09 | 1.15 | 1.07 | 0.635 | 0.557 | 0.647 | 0.707 | 0.705 | 0.574 | 0.517 | 0.496 | 0.56 | 0.495
HOP-62 | 0.839 | 0.673 | 0.939 | 0.803 | 0.911 | 0.784 | 0.899 | 0.793 | 0.853 | 0.643 | 0.526 | 0.421 | 0.326 | 0.363 | 0.384 | 0.353 | 0.438 | 0.379 | 0.332 | 0.306
IA-LM | 0.807 | 0.886 | 0.727 | 0.877 | 0.666 | 0.348 | 0.292 | 0.309 | 0.32 | 0.276 | 0.758 | 0.959 | 0.802 | – | 0.66 | – | – | – | – | –
LC-2-ad | 1.04 | 1 | 1.06 | 0.961 | 0.799 | 0.567 | 0.552 | 0.647 | 0.928 | 0.66 | 0.732 | 0.703 | 0.703 | 0.664 | 0.596 | 0.876 | 0.932 | 0.926 | 0.905 | 0.793
LK-2 | – | – | – | – | – | 0.585 | 0.625 | 0.586 | 0.794 | 0.462 | 0.807 | 0.846 | 0.615 | 0.639 | 0.542 | 0.897 | 0.973 | 0.679 | 0.73 | 0.601
NCI-H358 | – | – | – | – | – | 0.276 | 0.351 | 0.275 | 0.347 | 0.243 | 0.61 | 0.57 | 0.573 | 0.532 | 0.416 | 0.12 | 0.125 | 0.108 | 0.126 | 0.0973
NCI-H522 | – | – | – | – | – | – | – | – | – | – | 0.55 | 0.594 | 0.575 | 0.693 | 0.763 | 0.73 | 0.813 | 0.698 | 0.812 | 0.705
NCI-H1299 | 1.05 | 1.01 | 1.04 | 0.996 | 1.02 | 0.754 | 0.768 | 0.809 | 0.739 | 0.693 | 0.96 | 1.04 | 0.991 | 0.948 | 0.955 | – | – | – | – | –
NCI-H1395 | – | – | – | – | – | 0.569 | 0.655 | 0.605 | 0.668 | 0.661 | 0.454 | 0.484 | 0.492 | 0.457 | 0.471 | 0.979 | 1.07 | 1.06 | 1.14 | 1.02
NCI-H1563 | 0.906 | 0.808 | 0.849 | 0.867 | 0.876 | 0.602 | 0.629 | 0.657 | 0.722 | 0.662 | – | – | – | – | – | – | – | – | – | –
NCI-H1648 | – | – | – | – | – | – | – | – | – | – | 0.874 | 0.886 | 0.918 | 0.48 | 0.46 | 0.417 | 0.435 | 0.462 | 0.392 | 0.301
NCI-H1703 | 0.311 | 0.295 | 0.415 | 0.481 | 0.235 | 0.266 | 0.243 | 0.248 | 0.229 | 0.235 | 0.393 | 0.388 | 0.368 | 0.526 | 0.389 | – | – | – | – | –
NCI-H1793 | – | – | – | – | – | 0.285 | 0.393 | 0.208 | 0.319 | 0.265 | 0.88 | 0.685 | 0.777 | 0.948 | 0.769 | 0.473 | 0.4 | 0.419 | 0.519 | 0.567
NCI-H1944 | – | – | – | – | – | 0.356 | 0.352 | 0.335 | 0.342 | 0.396 | 0.402 | 0.421 | 0.416 | 0.436 | 0.42 | 0.412 | 0.45 | 0.39 | 0.449 | 0.412
NCI-H2170 | – | – | – | – | – | 0.355 | 0.312 | 0.316 | – | 0.332 | 0.684 | 0.652 | 0.672 | 0.604 | 0.521 | 0.964 | 0.906 | 0.895 | 0.956 | 0.94
NCI-H2342 | – | – | – | – | – | – | – | – | – | – | 0.494 | 0.503 | 0.471 | 0.352 | 0.398 | 0.906 | 0.819 | 0.753 | 0.774 | 0.806
SK-MES-1 | – | – | – | – | – | 0.401 | 0.322 | 0.293 | 0.311 | 0.367 | 0.718 | 0.76 | 0.731 | 0.538 | 0.499 | 0.562 | 0.532 | 0.558 | 0.57 | 0.513
SW 900 | – | – | – | – | – | – | – | – | – | – | 0.867 | 1.09 | 1.01 | 0.722 | 0.718 | 0.846 | 0.726 | 0.761 | 0.757 | 0.739
